Data published in patent US20260234185A1, “ANTI-AGING COMPOSITION COMPRISING PEPTIDE COMPLEX AS ACTIVE INGREDIENT” (priority 2023, published 2026).
Where no end group is shown, it is not given here.

Columns and labels:
[1] = system: FGF21 protein; test: ELISA of FGF21 protein expression in adipocytes; format: cell-based; settings: differentiated 3T3-L1 adipocytes, 0.2, 2, 20 μg/mL, ELISA (FIG. 2)
Method: An experiment was performed using adipocytes to determine whether the peptide complex prepared in Preparation Example 1 increases the expression level of FGF21 protein, a longevity-related protein, in adipocytes.
When 3T3-L1 preadipocytes reached 80% confluence, they were seeded at 5×10^3 cells/well in a 96-well plate and used for the experiment. Two days after reaching confluence, the medium was replaced with a differentiation-inducing medium to induce the differentiation into adipocytes, and two days after the induction, the cells were cultured for 2 days in a medium containing 10% FBS and 10 μg/mL insulin, and then the medium was replaced with 10% FBS every 2 days until differentiation into adipocytes. Once the differentiation was complete, the medium was replaced with a serum-free medium and cultured for 4 hours to induce starvation. The peptide complexes were treated at concentrations of 0.2 μg/mL, 2 μg/mL, and 20 μg/mL, and cultured for 48 and 72 hours, respectively. The complexes were dissolved by adding dissolution buffer thereto, and the proteins obtained by centrifugation at 4° C. and 12,000 rpm for 10 minutes were analyzed using a Quantikine ELISA Kit, and the absorbance was measured at 450 nm using a Microplate Reader.

[2] = system: AMP-activated protein kinase (AMPK) gene; test: RT-PCR of AMPK gene expression in palmitate-treated adipocytes; format: cell-based; settings: 3T3-L1 adipocytes, 25 μM palmitate 30 minutes; 0.2, 2, 20 μg/mL; 24 hours; RT-PCR vs palmitate control (PA) (FIGS. 4a, 4b)
Method: An experiment was performed to determine whether the peptide complex prepared in Preparation Example 1 increases the gene expression of longevity-related genes, FGF21, SIRT1, AMPK, and FOXO3A, in adipocytes in a state of insulin metabolic disorder induced by palmitate treatment.
When 3T3-L1 preadipocytes reached 80% confluence, they were seeded at 5×10^3 cells/well in a 96-well plate and used for the experiment. Two days after reaching confluence, the medium was replaced with differentiation-inducing medium to induce the differentiation into adipocytes, and two days after the induction, the medium was cultured for 2 days in a medium containing 10% FBS and 10 μg/mL insulin, and then the medium was replaced with 10% FBS every 2 days until their differentiation into adipocytes. After differentiation was complete, the medium was replaced with glucose-free medium, cultured for 16 hours, and then starvation was induced by culturing for 40 minutes in 100 μL KPPH buffer containing 2% BSA. After treating with 25 μM palmitate for 30 minutes, the peptide complexes were treated at concentrations of 0.2 μg/mL, 2 μg/mL, and 20 μg/mL, cultured for 24 hours, and RNA was extracted after 24 hours and RT-PCR was performed. […] Subsequently, the mRNA expression pattern was determined by agarose gel electrophoresis.

[3] = system: FGF21; test: Western blot of FGF21 protein expression in myocytes; format: cell-based, mouse; settings: differentiated C2C12 myocytes; 0.2, 2, 20 μg/mL; 24 hours; Western blot (FIGS. 6a, 6b)
Method: An experiment was performed to determine whether the peptide complex increases the phosphorylation of AMPK and the expression of SIRT1 and FGF21 proteins in myocytes.
C2C12 cells, mouse-derived myoblasts, were cultured in DMEM medium containing 1% P/S and 2% BCS. When the cell confluency reached 70-80%, the cells were seeded in a 6-well culture plate. When the cell confluency in the 6-well culture plate reached 100%, the medium was replaced with differentiation medium (1% P/S, 2% horse serum), and thereafter, the differentiation medium (1% P/S, 2% horse serum) was replaced once every two days. Five days after the first replacement, the peptide complex was treated at concentrations of 0.2 μg/mL, 2 μg/mL, and 20 μg/mL and cultured for 24 hours. The group untreated with the peptide complex was used as the control. After dissolving by adding dissolution buffer thereto, the proteins obtained were centrifuged at 4° C. and 12,000 rpm for 30 minutes, and quantified using a BCA kit. The proteins were subjected to sodium dodecyl sulfate-polyacrylamide gel electrophoresis (SDS-PAGE) and then electrotransferred onto a membrane. The membrane with the proteins attached was blocked by treating it with 5% skim milk, and then the primary antibody was reacted overnight at 4° C. […]

peptide complex: prepared by mixing equal amounts of the peptide of SEQ ID NO: 1 (LKTRN) and the peptide of SEQ ID NO: 2 (KGSATGWMA) (also: mixture of two peptides)
increased: expression level of FGF21 protein ([1]; 48 hours) | expression level of FGF21 protein ([1]; 72 hours) | expression of AMP-activated protein kinase (AMPK) gene [2] | expression level of FGF21 protein [3]
